Measurements reported in patent US4247712A, “Preservation of aqueous systems with 2-chloro-3-oxobutyramide derivatives” (Givaudan Corporation, priority 1979, dated 1981).
Values after ≈ are worked out from the molar mass of the structure shown. Read-outs that look alike come from different tables or passages of the source.

Experiments:
Format in all cases: cell-based
[1] = tested on: P. aeruginosa; experiment: Effectiveness as slimicide for pulp and paper mill water systems; conditions: 62.5 = lowest concentration tested, no growth at it; for MIC: Pseudomonas aeruginosa, week 1, 28° C., read-out: Effectiveness as slimicide (inhibitory concentration range)
Experimental: (§1) Various quantities of a 6% solution of this compound in dimethylformamide were incorporated into 24 ml of a test substrate composed as follows: 84.4 g Whatman No. 2 powdered cellulose 2.6 g Sodium nitrate 1.0 g Calcium sulfate 6.5 g Maltose 1.0 g Nutrient Broth, Difco 10.0 ml Mersize Rm […] (Monsanto) 2.5 ml 2% Alum 900 ml Distilled water The samples were inoculated with four different organisms and incubated at 28° C. At weekly intervals the samples were examined for the presence of microbial growth and reinoculated during a total incubation period of four weeks.

[2] = tested on: A. niger; experiment: as above; conditions: range: growth at lower, none at higher, 62.5 = lowest concentration tested, no growth at it; for MIC: Aspergillus niger, week 1, 28° C., read-out: Effectiveness as slimicide (inhibitory concentration range)
Experimental: as §1

[3] = tested on: E. aerogenes; experiment: as above; conditions: Klebsiella aerogenes, range: growth at lower, read-out: Effectiveness as slimicide (inhibitory concentration range)
Experimental: as §1

[4] = tested on: P. piscarium; experiment: as above; conditions: read-out: Effectiveness as slimicide (inhibitory concentration range)
Experimental: as §1

[5] = tested on: Pseudomonas aeruginosa; experiment: Utility as a cosmetic preservative (cosmetic lotion); conditions: weekly reinoculation
Experimental: (§2) The 2-Chloro-3-oxobutyramide derivatives are effective cosmetic preservatives. Two-fold serial dilutions of 6% solutions of the 2-haloacetoacetic acid derivatives in dimethylformamide were added to a cosmetic lotion of the following formulation: |Stearic acid 1.4 g |Arlacel 60 (sorbitan |monostearate) 0.7 g |Tween 20 Polyoxethylene |(20) sorbitan |monostearate 1.6 g |Distilled water 94.0 g The lotions were inoculated with both Pseudomonas aeruginosa and Aspergillus niger and incubated at 28° C. At weekly intervals, the lotions were examined for microorganisms by conventional streak-plate methods or by macroscopic observation. The lotions were then reinoculated with the test organisms and reincubated.

[6] = tested on: Aspergillus niger; experiment: as above; conditions: weekly reinoculation
Experimental: as §2

[7] = tested on: Aureobasidium pullulans; experiment: General antimicrobial activity, 5-fold serial dilution test in agar (MIC); conditions: 168 h, 28° C., seven days, growth only at lower concentration of range, read-out: minimum inhibitory concentration (MIC), F4
Experimental: (§3) General antibacterial and antifungal activity was evaluated by a 5-fold serial dilution test in agar. In this test, compounds were prepared as 6% solutions in dimethylformamide or ethanol. The 6% solution was then 5-fold serially diluted in test tubes to give the desired concentrations when mixed with agar and poured into sterile Petri dishes. Tryptone glucose extract agar was used for the bacterial testing; mildew glucose agar for the fungal testing. The bacterial plates were spot inoculated with 24-hour nutrient broth cultures and incubated at 37° C. for 48 hours. The fungal plates were spot inoculated with spore suspensions and incubated at 28° C. for seven days. At the end of the incubation periods, all plates were examined for growth. The minimum inhibitory concentration (MIC) for each organism is expressed in Table I. In the ranges presented, growth is observed only at the lower concentration.
(§4) The activity is presented in Tabular Form (Table I) using the following key.

[8] = tested on: Aspergillus oryzae; experiment: as above; conditions: 168 h, 28° C., seven days, growth only at lower concentration of range, read-out: minimum inhibitory concentration (MIC), F2
Experimental: as §3, §4

[9] = tested on: Staphylococcus aureus; experiment: as above; conditions: 37° C., 48 hours, growth only at lower concentration of range, read-out: minimum inhibitory concentration (MIC), B1
Experimental: as §3, §4

[10] = tested on: Escherichia coli; experiment: as above; conditions: 37° C., 48 hours, growth only at lower concentration of range, read-out: minimum inhibitory concentration (MIC), B2
Experimental: as §3, §4

[11] = tested on: Bacillus subtilis; experiment: as above; conditions: 37° C., 48 hours, growth only at lower concentration of range, read-out: minimum inhibitory concentration (MIC), B5
Experimental: as §3, §4

[12] = tested on: Proteus vulgaris; experiment: as above; conditions: 37° C., 48 hours, growth only at lower concentration of range, read-out: minimum inhibitory concentration (MIC), B4
Experimental: as §3, §4

[13] = tested on: Penicillium piscarium; experiment: as above; conditions: 168 h, 28° C., seven days, growth only at lower concentration of range, read-out: minimum inhibitory concentration (MIC), F3
Experimental: as §3, §4

[14] = tested on: Pseudomonas aeruginosa; experiment: as above; conditions: 37° C., 48 hours, growth only at lower concentration of range, read-out: minimum inhibitory concentration (MIC), B3
Experimental: as §3, §4

[15] = tested on: Aspergillus niger; experiment: as above; conditions: 168 h, 28° C., seven days, growth only at lower concentration of range, read-out: minimum inhibitory concentration (MIC), F1
Experimental: as §3, §4

[16] = tested on: Pseudomonas aeruginosa; experiment: Utility in water and oil emulsions (3.3% cutting oil emulsions); conditions: 28° C., weekly reinoculation, read-out: Minimum Inhibitory Concentration Range
Experimental: The utility of the 2-chloro-3-oxobutyramide derivatives in water and oil emulsions is illustrated below using a commercially available cutting oil. In running these tests, two-fold serial dilutions of 6% solutions of the compound in dimethylformamide was added to 3.3% cutting oil emulsions. The emulsions were prepared by diluting with water a commercially available cutting oil concentrate. The emulsions were inoculated with a culture of Pseudomonas aeruginosa and incubated at 28° C. on a rotary shaker. At weekly intervals, the emulsions were examined for bacteria by conventional streak-plate methods. The emulsions were then reinoculated with Pseudomonas aeruginosa and reincubated. […] indicate the activity range for that compound.

[17] = week 1, 28° C., none at higher, 62.5 = lowest concentration tested, no growth at it
[18] = week 2, 28° C., none at higher, 62.5 = lowest concentration tested, no growth at it
[19] = week 3, 28° C., none at higher concentration
[20] = week 4, 28° C., none at higher concentration
[21] = week 1, 28° C., 62.5 = lowest concentration tested, no growth at it
[22] = week 2, 28° C., range: growth at lower, none at higher concentration
[23] = week 3, 28° C., range: growth at lower, none at higher concentration
[24] = week 4, 28° C., range: growth at lower, none at higher concentration
[25] = Week 1, 3.3% cutting oil emulsion
[26] = Week 2, 3.3% cutting oil emulsion
[27] = Week 3, 3.3% cutting oil emulsion
[28] = Week 4, 3.3% cutting oil emulsion

SMILES	MIC [1]	Effectiveness as slimicide (inhibitory concentration range) ([1]; week 2, 28° C.)	Effectiveness as slimicide (inhibitory concentration range) ([1]; week 3, 28° C.)	Effectiveness as slimicide (inhibitory concentration range) ([1]; week 4, 28° C.)	MIC [2]	Effectiveness as slimicide (inhibitory concentration range) ([2]; week 2, 28° C.)	Effectiveness as slimicide (inhibitory concentration range) ([2]; week 3, 28° C.)	Effectiveness as slimicide (inhibitory concentration range) ([2]; week 4, 28° C.)	MIC [3, 17]	MIC [3, 18]	MIC [3, 19]	MIC [3, 20]	MIC [4, 21]	MIC [4, 22]	MIC [4, 23]	MIC [4, 24]	minimum inhibitory concentration effective in preventing microbial growth ([5]; Week 1, 28° C.)	minimum inhibitory concentration effective in preventing microbial growth ([5]; Week 2, 28° C.)	minimum inhibitory concentration effective in preventing microbial growth ([5]; Week 3, 28° C.)	minimum inhibitory concentration effective in preventing microbial growth ([5]; Week 4, 28° C.)	also measured
CC(=O)C(Cl)C(N)=O (centres unmarked) [2-Chloro-3-oxobutyramide]	62.5 µg/mL (≈ 461 µM)	62.5 µg/mL	62.5 µg/mL	62.5 µg/mL	62.5 µg/mL (≈ 461 µM)	62.5 µg/mL	62.5 µg/mL	62.5 µg/mL	62.5 µg/mL (≈ 461 µM)	62.5 µg/mL (≈ 461 µM)	62.5 to 125 µg/mL (≈ 461 to 922 µM)	62.5 to 125 µg/mL (≈ 461 to 922 µM)	62.5 µg/mL (≈ 461 µM)	62.5 to 125 µg/mL (≈ 461 to 922 µM)	125 to 250 µg/mL (≈ 922 to 1840 µM)	125 to 250 µg/mL (≈ 922 to 1840 µM)	5 (63-125 mcg/gm)	5 (63-125 mcg/gm)	4 (125-250 mcg/gm)	4 (125-250 mcg/gm)	minimum inhibitory concentration effective in preventing microbial growth ([6]; Week 1, 28° C.): 5 (63-125 mcg/gm); minimum inhibitory concentration effective in preventing microbial growth ([6]; Week 2, 28° C.): 5 (63-125 mcg/gm); minimum inhibitory concentration effective in preventing microbial growth ([6]; Week 3, 28° C.): 4 (125-250 mcg/gm); minimum inhibitory concentration effective in preventing microbial growth ([6]; Week 4, 28° C.): 2 (500-1000 mcg/gm); MIC [7]: 15.3 to 76.8 µg/mL (≈ 113 to 567 µM); MIC [8]: 15.3 to 76.8 µg/mL (≈ 113 to 567 µM); MIC [9]: 15.3 to 76.8 µg/mL (≈ 113 to 567 µM); MIC [10]: 15.3 to 76.8 µg/mL (≈ 113 to 567 µM); MIC [11]: 15.3 to 76.8 µg/mL (≈ 113 to 567 µM); MIC [12]: 15.3 to 76.8 µg/mL (≈ 113 to 567 µM); MIC [13]: 15.3 to 76.8 µg/mL (≈ 113 to 567 µM); MIC [14]: 15.3 to 76.8 µg/mL (≈ 113 to 567 µM); MIC [15]: 15.3 to 76.8 µg/mL (≈ 113 to 567 µM); MIC [16, 25]: 8 to 16 µg/mL (≈ 59 to 118 µM); MIC [16, 26]: 63 to 125 µg/mL (≈ 465 to 922 µM); MIC [16, 27]: 63 to 125 µg/mL (≈ 465 to 922 µM); MIC [16, 28]: 63 to 125 µg/mL (≈ 465 to 922 µM)
CC(=O)NC(=O)C(Cl)C(C)=O (centres unmarked) [N-Acetyl-2-Chloro-3-oxobutyramide, N-Acetyl-2-chloro-3-oxobutyramide]	62.5 µg/mL (≈ 352 µM)	62.5 µg/mL	62.5 µg/mL	62.5 µg/mL	62.5 to 125 µg/mL (≈ 352 to 704 µM)	62.5 to 125 µg/mL	62.5 to 125 µg/mL	62.5 to 125 µg/mL	62.5 to 125 µg/mL (≈ 352 to 704 µM)	125 to 250 µg/mL (≈ 704 to 1410 µM)	250 to 500 µg/mL (≈ 1410 to 2820 µM)	250 to 500 µg/mL (≈ 1410 to 2820 µM)	62.5 µg/mL (≈ 352 µM)	62.5 to 125 µg/mL (≈ 352 to 704 µM)	62.5 to 125 µg/mL (≈ 352 to 704 µM)	62.5 to 125 µg/mL (≈ 352 to 704 µM)	5 (63-125 mcg/gm)	5 (63-125 mcg/gm)	4 (125-250 mcg/gm)	4 (125-250 mcg/gm)	minimum inhibitory concentration effective in preventing microbial growth ([6]; Week 1, 28° C.): 5 (63-125 mcg/gm); minimum inhibitory concentration effective in preventing microbial growth ([6]; Week 2, 28° C.): 4 (125-250 mcg/gm); minimum inhibitory concentration effective in preventing microbial growth ([6]; Week 3, 28° C.): 3 (250-500 mcg/gm); minimum inhibitory concentration effective in preventing microbial growth ([6]; Week 4, 28° C.): 2 (500-1000 mcg/gm); MIC [7]: 76.8 to 384 µg/mL (≈ 432 to 2160 µM); MIC [8]: 76.8 to 384 µg/mL (≈ 432 to 2160 µM); MIC [9]: 76.8 to 384 µg/mL (≈ 432 to 2160 µM); MIC [10]: 15.3 to 76.8 µg/mL (≈ 86.2 to 432 µM); MIC [11]: 76.8 to 384 µg/mL (≈ 432 to 2160 µM); MIC [12]: 76.8 to 384 µg/mL (≈ 432 to 2160 µM); MIC [13]: 76.8 to 384 µg/mL (≈ 432 to 2160 µM); MIC [14]: 15.3 to 76.8 µg/mL (≈ 86.2 to 432 µM); MIC [15]: 76.8 to 384 µg/mL (≈ 432 to 2160 µM); MIC [16, 25]: 32 to 63 µg/mL (≈ 180 to 355 µM); MIC [16, 26]: 63 to 125 µg/mL (≈ 355 to 704 µM); MIC [16, 27]: 125 to 500 µg/mL (≈ 704 to 2820 µM); MIC [16, 28]: 125 to 500 µg/mL (≈ 704 to 2820 µM)
